For one assay, the target named is T1, ERα (Homo sapiens, UniProt P03372).
T1 sequence (P03372 1-595): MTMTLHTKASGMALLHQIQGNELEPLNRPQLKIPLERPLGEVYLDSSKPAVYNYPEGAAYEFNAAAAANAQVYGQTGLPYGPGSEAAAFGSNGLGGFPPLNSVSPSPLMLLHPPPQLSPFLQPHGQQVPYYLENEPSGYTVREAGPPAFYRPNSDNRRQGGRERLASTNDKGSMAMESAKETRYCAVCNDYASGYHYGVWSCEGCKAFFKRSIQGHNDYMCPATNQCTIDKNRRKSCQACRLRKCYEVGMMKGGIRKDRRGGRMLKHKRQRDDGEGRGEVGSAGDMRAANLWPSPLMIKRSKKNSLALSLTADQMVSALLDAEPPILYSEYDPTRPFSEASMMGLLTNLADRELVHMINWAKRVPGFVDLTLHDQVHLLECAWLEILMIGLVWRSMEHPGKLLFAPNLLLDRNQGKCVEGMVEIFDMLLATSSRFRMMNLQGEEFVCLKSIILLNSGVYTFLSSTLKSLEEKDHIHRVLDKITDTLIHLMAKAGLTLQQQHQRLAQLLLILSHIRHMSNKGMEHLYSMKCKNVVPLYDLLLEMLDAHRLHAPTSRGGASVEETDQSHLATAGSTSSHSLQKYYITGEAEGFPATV
In words: ER affinity assay (ERα), [3H]-E2 displacement. The settings on record: Relative Binding Affinity, E2 = 100%; recombinant human protein. On the procedure:
(§1) The binding affinity of selected compounds to the ERα and ERβ was determined according to Zimmermann et al. (Zimmermann, J. et al., 3. Steroid Biochem. Mol. Biol., 94:57-66 (2005)) using recombinant human proteins. Briefly, 0.25 μM of ERα or ERβ, respectively, were incubated with [^3H]-E2 (10 nM) and test compound for 1 h at room temperature. The potential inhibitors were dissolved in DMSO (5% final concentration). Evaluation of non-specific-binding was performed with diethylstilbestrol (10 μM). After incubation, ligand-receptor complexes were selectively bound to hydroxyapatite (5 g/60 ml TE-buffer). The formed complex was separated, washed and resuspended in ethanol. For radiodetection, scintillator cocktail (Quickszint 212, Zinsser Analytic, Frankfurt) was added and the samples were measured in a liquid scintillation counter (Rack Beta Primo 1209, Wallac, Turku). […] The compound concentration to displace 50% of the receptor bound [^3H]-E2 were determined. Unlabelled E2 was used as a reference. For determination of the relative binding affinity (RBA) the ratio was calculated according to the following equation: […]
(§2) After the assay was established and validated a modification was made to increase throughput. […] Results were reported as RBA ranges.

For a further assay, the target named is ERβ (Homo sapiens, UniProt Q92731). Kind of assay: ER affinity assay (ERβ), [3H]-E2 displacement. The settings on record: Relative Binding Affinity, E2 = 100%; recombinant human protein. The method, then: as §1, §2
ERβ, sequence (Q92731 whole entry): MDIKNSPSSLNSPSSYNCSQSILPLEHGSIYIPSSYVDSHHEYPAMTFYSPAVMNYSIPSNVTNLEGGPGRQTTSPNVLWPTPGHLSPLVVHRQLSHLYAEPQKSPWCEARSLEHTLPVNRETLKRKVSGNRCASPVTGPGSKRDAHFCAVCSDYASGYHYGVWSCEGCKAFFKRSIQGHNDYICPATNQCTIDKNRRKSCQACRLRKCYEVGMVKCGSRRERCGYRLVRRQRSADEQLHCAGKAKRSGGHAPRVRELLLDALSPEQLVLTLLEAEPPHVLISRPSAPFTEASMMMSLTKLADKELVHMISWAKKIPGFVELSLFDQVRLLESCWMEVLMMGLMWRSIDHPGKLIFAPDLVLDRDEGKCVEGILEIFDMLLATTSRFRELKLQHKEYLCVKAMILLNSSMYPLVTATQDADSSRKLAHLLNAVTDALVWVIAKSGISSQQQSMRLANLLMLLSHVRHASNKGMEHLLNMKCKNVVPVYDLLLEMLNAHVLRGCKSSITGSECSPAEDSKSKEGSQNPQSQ
Another assay concerns the target T2, 17β-HSD1 (Homo sapiens, UniProt P14061).
T2 construct: For the partial purification of 17β-HSD1, the cytosolic fraction was precipitated with ammonium sulfate; from tissue; host or cells: human placenta, cytosolic fraction
T2 sequence (P14061 1-328): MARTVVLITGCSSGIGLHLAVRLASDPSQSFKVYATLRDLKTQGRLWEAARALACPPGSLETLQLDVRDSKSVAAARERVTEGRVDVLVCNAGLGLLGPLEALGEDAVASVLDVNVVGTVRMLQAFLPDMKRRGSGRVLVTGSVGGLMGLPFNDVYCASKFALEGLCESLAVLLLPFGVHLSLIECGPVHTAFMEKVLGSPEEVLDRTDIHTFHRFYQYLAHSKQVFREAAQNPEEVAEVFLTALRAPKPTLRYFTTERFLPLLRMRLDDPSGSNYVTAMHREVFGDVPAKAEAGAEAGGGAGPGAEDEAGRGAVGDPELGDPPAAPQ
Kind of assay: Inhibition of 17β-HSD1 in cell-free assay. The settings on record: human placenta, cytosolic fraction, substrate E1 500 nM, cofactor NADH 500 μM. Format: biochemical. On the procedure: (§3) Fresh human placenta was homogenized. Cytosolic and microsomal fractions were separated by centrifugation at 1000 g, 10000 g and 150000 g. 17β-HSD2 was obtained directly from the microsomal fraction. For the partial purification of 17β-HSD1, the cytosolic fraction was precipitated with ammonium sulfate. Aliquots containing 17β-HSD1 or 17β-HSD2 were stored frozen.
The 17β-HSD1 inhibition assay was performed similarly to the 17β-HSD2 test. The cytosolic fraction was incubated with NADH [500 μM], test compound and a mixture of unlabelled- and [^3H]-E1 (final concentration: 500 nM, 0.15 μCi) for 10 min at 37° C. Further treatment of the samples and HPLC separation was carried out as mentioned above for 17β-HSD2.

Another assay deals with T3, 17β-HSD2 (Homo sapiens, UniProt P37059).
T3 sequence (P37059 1-387): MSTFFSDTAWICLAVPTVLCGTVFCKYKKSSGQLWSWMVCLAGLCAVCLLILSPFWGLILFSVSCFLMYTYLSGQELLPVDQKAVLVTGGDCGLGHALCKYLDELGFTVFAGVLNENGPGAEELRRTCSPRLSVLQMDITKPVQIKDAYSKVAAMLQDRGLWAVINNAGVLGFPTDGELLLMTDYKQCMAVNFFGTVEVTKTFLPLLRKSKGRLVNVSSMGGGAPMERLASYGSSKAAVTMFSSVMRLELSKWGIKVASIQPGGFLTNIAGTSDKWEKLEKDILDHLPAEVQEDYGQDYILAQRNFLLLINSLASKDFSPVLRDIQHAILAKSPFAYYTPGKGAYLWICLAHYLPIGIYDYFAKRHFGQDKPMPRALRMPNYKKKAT
Kind of assay: Inhibition of 17β-HSD2 in cell-free assay. The class given is biochemical. Also noted: 17β-HSD2 was obtained directly from the microsomal fraction; from tissue; host or cells: human placenta, microsomal fraction. The settings on record: human placenta, microsomal fraction, substrate E2 500 nM, cofactor NAD+ 1500 μM. On the procedure:
as §3
Inhibitor stock solutions were prepared in DMSO. Final concentration of DMSO was adjusted to 1% in all samples. The enzymatic reaction was started by addition of a mixture of unlabelled- and [^3H]-E2 (final concentration: 500 nM, 0.11 μCi). After 20 min at 37° C., the incubation was stopped with HgCl2 and the mixture was extracted with ether. After evaporation, the steroids were dissolved in acetonitrile. E1 and E2 were separated using acetonitrile/water (45:55) as mobile phase in a C18 RP chromatography column (Nucleodur C18, 3 μm, Macherey-Nagel, Duren) connected to a HPLC-system (Agilent 1100 Series, Agilent Technologies, Waldbronn). Detection and quantification of the steroids were performed using a radioflow detector (Berthold Technologies, Bad Wildbad). The conversion rate was calculated according to the following equation: […]

For `COc1cccc(CN(C)C(=O)c2ccc(-c3cccc(OC)c3)cc2)c1` [compound 1, 3′-Methoxy-N-(3-methoxybenzyl)-N-methylbiphenyl-4-carboxamide], the “ERα RBA (%)” value at ERα was less than 0.1%. At ERβ, the “ERβ RBA (%)” value is given as less than 0.1%.
Consider `Cc1cccc(-c2ccc(C(=O)N(C)Cc3cccc(O)c3)cc2)c1` [compound 4, N-(3-hydroxybenzyl)-N,3′-dimethylbiphenyl-4-carboxamide], for which the “ERα RBA (%)” value on ERα is less than 0.1%. Also, the “ERβ RBA (%)” value at ERβ was less than 0.1%.
Broadly, the inhibition is how much of the control response was suppressed. A lower inhibition goes with a response near the control. With `COc1ccc(-c2cccc(C(=O)N(C)Cc3cccc(OC)c3)c2)cc1` [compound 5, 4′-Methoxy-N-(3-methoxybenzyl)-N-methylbiphenyl-3-carboxamide], the “% inhibition 17β-HSD1” value on 17β-HSD1 (inhibitor concentration 1 μM) is reported as “n.i.^e”. Moreover, the inhibition at 1 µM on 17β-HSD2 (inhibitor concentration 1 μM) is 11%.
For `CN(Cc1cccc(O)c1)C(=O)c1cccc(-c2ccc(O)cc2)c1` [compound 6, 4′-Hydroxy-N-(3-hydroxybenzyl)-N-methylbiphenyl-3-carboxamide], the “ERα RBA (%)” value on ERα is less than 0.1%. The “ERβ RBA (%)” value at ERβ was less than 0.1%.
As a reminder, the IC50 is the midpoint of a concentration-inhibition curve. As for `CN(Cc1cccc(O)c1)C(=O)c1cccc(-c2cccc(O)c2)c1` [compound 8, 3′-Hydroxy-N-(3-hydroxybenzyl)-N-methylbiphenyl-3-carboxamide], the IC50 stood at 3.8 µM against 17β-HSD1 and 0.481 µM against 17β-HSD2.
With `COc1ccc(-c2ccc(C(=O)N(C)Cc3cccc(OC)c3)s2)cc1` [compound 25, N-(3-Methoxybenzyl)-5-(4-methoxyphenyl)-N-methylthiophene-2-carboxamide], on ERα, the “ERα RBA (%)” value is listed as less than 0.1%. Besides, the “ERβ RBA (%)” value at ERβ is on record as less than 0.1%.
Turning to `CN(Cc1cccc(O)c1)C(=O)c1ccc(-c2ccccc2)s1` [compound 30, N-(3-Hydroxybenzyl)-N-methyl-5-phenylthiophene-2-carboxamide], the “ERα RBA (%)” value at ERα is given as less than 0.1%. The “ERβ RBA (%)” value on ERβ is less than 0.1%.
`COc1cccc(-c2ccc(C(=O)N(C)Cc3ccccc3)s2)c1` [compound 33, N-Benzyl-5-(3-methoxyphenyl)-N-methylthiophene-2-carboxamide]: the “ERα RBA (%)” value on ERα is less than 0.1%. For the same compound, at ERβ, the “ERβ RBA (%)” value is less than 0.1%.
In the case of `COc1ccc(-c2ccc(C(=O)N(C)Cc3ccccc3)s2)cc1` [compound 35, N-Benzyl-5-(4-methoxyphenyl)-N-methylthiophene-2-carboxamide], the “ERα RBA (%)” value on ERα is less than 0.1%. Besides, on ERβ, the “ERβ RBA (%)” value is less than 0.1%.
Turning to `CN(Cc1cccc(O)c1)C(=O)c1ccc(-c2ccc(F)cc2)s1` [compound 42, 5-(4-Fluorophenyl)-N-(3-hydroxybenzyl)-N-methylthiophene-2-carboxamide], the “ERα RBA (%)” value at ERα was less than 0.1%. The “ERβ RBA (%)” value on ERβ is less than 0.1%.
The compound `COc1cccc(-c2ccc(C(=O)N(C)Cc3cccc(O)c3)s2)c1` [compound 45, N-(3-Hydroxybenzyl)-5-(3-methoxyphenyl)-N-methylthiophene-2-carboxamide] yielded an IC50 on 17β-HSD1 of 23.3 µM. The “ERα RBA (%)” value at ERα is less than 0.1%. Further, the “ERβ RBA (%)” value at ERβ is less than 0.1%.
Consider `COc1cccc(-c2ccc(C(=O)N(C)c3cccc(OC)c3)s2)c1` [compound 47, N,5-bis(3-Methoxyphenyl)-N-methylthiophene-2-carboxamide], for which the “ERα RBA (%)” value at ERα is listed as less than 0.1%. Moreover, the “ERβ RBA (%)” value on ERβ is reported as less than 0.1%.
As for `COc1ccc(-c2ccc(C(=O)N(C)c3cccc(OC)c3)s2)cc1` [compound 55, N-(3-Methoxyphenyl)-5-(4-methoxyphenyl)-N-methylthiophene-2-carboxamide], the “ERα RBA (%)” value at ERα is less than 0.1%. Besides, at ERβ, the “ERβ RBA (%)” value was less than 0.1%.
`COc1cccc(N(C)C(=O)c2ccc(-c3cccc(SC)c3)s2)c1` [compound 63, N-(3-methoxyphenyl)-N-methyl-5-(3-(methylthio)phenyl)thiophene-2-carboxamide]: at ERα, the “ERα RBA (%)” value was less than 0.1%. In addition, the “ERβ RBA (%)” value at ERβ is less than 0.1%.
Regarding `COc1cccc(N(C)C(=O)c2ccc(-c3cccc(C)c3)s2)c1` [compound 64, N-(3-methoxyphenyl)-N-methyl-5-m-tolylthiophene-2-carboxamide], the “ERα RBA (%)” value at ERα is less than 0.1%. Besides, on ERβ, the “ERβ RBA (%)” value was less than 0.1%.
As for `COc1cccc(N(C)C(=O)c2ccc(-c3c(F)ccc(OC)c3F)s2)c1` [compound 65, 5-(2,6-Difluoro-3-methoxyphenyl)-N-(3-methoxyphenyl)-N-methylthiophene-2-carboxamide], at ERα, the “ERα RBA (%)” value was less than 0.1%. Besides, the “ERβ RBA (%)” value on ERβ is on record as less than 0.1%.
Turning to `COc1cccc(N(C)C(=O)c2ccc(-c3cccc(C)c3F)s2)c1` [compound 66, 5-(2-Fluoro-3-methylphenyl)-N-(3-methoxyphenyl)-N-methylthiophene-2-carboxamide], the “ERα RBA (%)” value at ERα is recorded as less than 0.1%. The “ERβ RBA (%)” value on ERβ was less than 0.1%.
Turning to `COc1cccc(-c2ccc(C(=O)N(C)c3ccccc3)s2)c1` [compound 67, 5-(3-Methoxyphenyl)-N-methyl-N-phenylthiophene-2-carboxamide], the “ERα RBA (%)” value on ERα is listed as less than 0.1%. The “ERβ RBA (%)” value at ERβ is given as less than 0.1%.
Regarding `COc1cccc(-c2ccc(C(=O)N(C)c3cccc(C)c3)s2)c1F` [compound 72, 5-(2-Fluoro-3-methoxyphenyl)-N-methyl-N-(m-tolylthiophene)-2-carboxamide], at ERα, the “ERα RBA (%)” value is on record as less than 0.1%. Also, the “ERβ RBA (%)” value at ERβ is less than 0.1%.
Turning to `Cc1cccc(-c2ccc(C(=O)N(C)c3ccccc3F)s2)c1` [compound 74, N-(2-fluorophenyl)-N-methyl-5-m-tolylthiophene-2-carboxamide], the “ERα RBA (%)” value on ERα is reported as less than 0.1%. The “ERβ RBA (%)” value at ERβ is recorded as less than 0.1%.

The values are drawn from US20140057953A1, “BIARYL DERIVATIVES AS SELECTIVE 17BETA-HYDROXYSTEROID DEHYDROGENASE TYPE 2 INHIBITORS” (priority 2011, published 2014).
